According to patent US5786486A, “Acrylamide derivatives and process for production thereof” (Kyorin Pharmaceutical Co., Ltd., priority 1994, dated 1998):
Converted amounts (≈) assume the structure as drawn.

How the values were obtained:
HeLa S3 cells = test: HeLa Cell Growth Inhibition Activity (HeLa S3, MTT); format: cell-based; conditions: Homo sapiens, 72 hours exposure
Experimental: HeLa Cell Growth Inhibition Activity:
HeLa S3 cells were maintained as a monolayer culture in Eagle's minimal medium (Nissui Seiyaku K. K., Tokyo) containing […] glutamine, 100 μg/mL of kanamycin sulfate, and 10% inactivated fetal calt serum at 37° C. in a carbon dioxide incubator. The cells 1.8×10^3 were inoculated to a 96-well plate, and were exposed to the test compounds from the next day for 72 hours. Then, the viable cell numbers were measured by evaluating the ability to reduce 3-[4,5-dimethylthiazol-2-yl]-2,5-diphenyltetrazolium bromide (MTT) according to the Mosmann's method (Mosmann,T., J. Imunol. Meth., 65, 55-63, 1983).

Colon 26 cells = test: Antitumor effect in Colon 26-bearing mice; format: in vivo, CDF1 female mice; conditions: for Antitumor activity Colon-26 TGI % (tumor growth inhibition rate): Colon 26-bearing CDF1 mice, single dose via tail vein, tumor weighed one week after; for Chemotherapy index MTD/TGI50: ratio of maximum tolerant dose (mg/kg) to dose giving 50% tumor growth inhibition (mg/kg), colon26-bearing mice
Experimental: Antitumor effect in Colon 26-bearing mice:
Colon 26 cells 1×10^6 were transplanted into an axillary region of 8-week old CDF1 female mice (Japan SLC Inc., Hamamatsu) subcutaneously. Six days after the transplantation, when the tumor grew palpable, the compound was administered via the tail vein. One week after the administration, the tumor was removed and weighed. The antitumor activity was represented by tumor growth inhibition rate (TGI %=(1--T/C)×100) derived from the ratio (T/C) of the average tumor weight (T) of the compound-administered group to the average tumor weight (C) of the control group.

In the case of COC(=O)c1c(C(F)(F)F)[nH]c2c(O)cc3c(c12)[C@H](CCl)CN3C(=O)/C=C/c1ccc(/C=C/C(=O)N2C[C@@H](CCl)c3c2cc(O)c2[nH]c(C(F)(F)F)c(C(=O)OC)c32)cc1 [Example 1, (S,S)-3,3'-[3,3'-(1,4-phenylenediacryloyl)]-bis[1-chloromethyl-5-hydroxy-7-trifluoromethyl-1,2,3,6-tetrahydropyrrolo[3,2-e]indole-8-methoxycarbonyl]], the IC50 (HeLa S3 cells) is reported as 0.0031 ng/mL (≈ 0.00352 nM), the “Antitumor activity Colon-26 TGI % (tumor growth inhibition rate)” value (Colon 26 cells; 7.81 μg/kg) is reported as 92% and the “Chemotherapy index MTD/TGI50” value (Colon 26 cells) is reported as 21.9.

For COC(=O)c1c(C(F)(F)F)[nH]c2c(O)cc3c(c12)[C@H](CCl)CN3C(=O)/C=C/c1ccc(/C=C/C(=O)N2C[C@@H](CCl)c3c2cc(O)c2[nH]c(C(F)(F)F)c(C(=O)OC)c32)c2c(OC)ccc(OC)c12 [Example 3, (S,S)-3,3'-[3,3'-(5,8-dimethoxy-1,4-naphthalenediyl)diacryloyl]-bis[1-chloromethyl-5-hydroxy-7-trifluoromethyl-1,2,3,6-tetrahydropyrrolo [3,2-e]indole-8-methoxycarbonyl]], the IC50 (HeLa S3 cells) was 0.00934 ng/mL (≈ 0.00944 nM).

With COC(=O)c1c(C(F)(F)F)[nH]c2c(O)cc3c(c12)[C@H](CCl)CN3C(=O)/C=C/c1ccc(/C=C/C(=O)N2C[C@@H](CCl)c3c2cc(O)c2[nH]c(C(F)(F)F)c(C(=O)OC)c32)c2c1OCCO2 [Example 4, (S,S)-3,3'-[3,3'-(2,3-(ethylenedioxy)-1,4-phenylene)diacryloyl]-bis[1-chloromethyl-5-hydroxy-7-trifluoromethyl-1,2,3,6-tetrahydropyrrolo [3,2-e]indole-8-methoxycarbonyl]] the IC50 (HeLa S3 cells) was 0.00276 ng/mL (≈ 0.00294 nM), the “Antitumor activity Colon-26 TGI % (tumor growth inhibition rate)” value (Colon 26 cells; 0.488 μg/kg) was 91% and the “Chemotherapy index MTD/TGI50” value (Colon 26 cells) was 9.

In the case of COC(=O)c1c(C(F)(F)F)[nH]c2c(O)cc3c(c12)[C@H](CCl)CN3C(=O)/C=C/c1ccc(/C=C/C(=O)N2C[C@@H](CCl)c3c2cc(O)c2[nH]c(C(F)(F)F)c(C(=O)OC)c32)c2c1OCO2 [Example 5, (S,S)-3,3'-[3,3'-(2,3-(methylenedioxy)-1,4-phenylene)diacryloyl]-bis[1-chloromethyl-5-hydroxy-7-trifluoromethyl-1,2,3,6-tetrahydropyrrolo[3,2-e]indole-8-methoxycarbonyl]], the IC50 (HeLa S3 cells) is reported as 0.00595 ng/mL (≈ 0.00644 nM) and the “Antitumor activity Colon-26 TGI % (tumor growth inhibition rate)” value (Colon 26 cells; 1.95 μg/kg) is reported as 90%.

With CCc1c(/C=C/C(=O)N2C[C@@H](CCl)c3c2cc(O)c2[nH]c(C(F)(F)F)c(C(=O)OC)c32)ccc(/C=C/C(=O)N2C[C@@H](CCl)c3c2cc(O)c2[nH]c(C(F)(F)F)c(C(=O)OC)c32)c1CC [Example 6, (S,S)-3,3'-[3,3'-(2,3-diethyl-1,4-phenylene)diacryloyl]-bis[1-chloromethyl-5-hydroxy-7-trifluoromethyl-1,2,3,6-tetrahydropyrrolo[3,2-e]indole-8-methoxycarbonyl]] the IC50 (HeLa S3 cells) was 0.0318 ng/mL (≈ 0.034 nM).

In the case of COC(=O)c1c(C(F)(F)F)[nH]c2c(O)cc3c(c12)[C@H](CCl)CN3C(=O)/C=C/c1ccc(/C=C/C(=O)N2C[C@@H](CCl)c3c2cc(O)c2[nH]c(C(F)(F)F)c(C(=O)OC)c32)c(OC)c1OC [Example 8, (S,S)-3,3'-[3,3 '-(2,3-dimethoxy-1,4-phenylene)diacryloyl]-bis[1-chloromethy 1-5-hydroxy-7-trifluoromethyl-1,2,3,6-tetrahydropyrrolo[3,2-e]indole-8-methoxycarbonyl]], the IC50 (HeLa S3 cells) is reported as 0.00158 ng/mL (≈ 0.00168 nM), the “Antitumor activity Colon-26 TGI % (tumor growth inhibition rate)” value (Colon 26 cells; 0.977 μg/kg) is reported as 89% and the “Chemotherapy index MTD/TGI50” value (Colon 26 cells) is reported as 4.6.

With COC(=O)c1c(C(F)(F)F)[nH]c2c(O)cc3c(c12)[C@H](CCl)CN3C(=O)/C=C/c1ccc(/C=C/C(=O)N2C[C@@H](CCl)c3c2cc(O)c2[nH]c(C(F)(F)F)c(C(=O)OC)c32)c2ccccc12 [Example 10, (S,S)-3,3'-[3,3'-(1,4-naphthalenediyl)diacryloyl]-bis[1-chloromethyl-5-hydroxy-7-trifluoromethyl-1,2,3,6-tetrahydropyrrolo[3,2-e]indole-8-methoxycarbonyl]] the IC50 (HeLa S3 cells) was 0.011 ng/mL (≈ 0.0118 nM), the “Antitumor activity Colon-26 TGI % (tumor growth inhibition rate)” value (Colon 26 cells; 0.977 μg/kg) was 85% and the “Chemotherapy index MTD/TGI50” value (Colon 26 cells) was 7.4.

In the case of COC(=O)c1c(C(F)(F)F)[nH]c2c(O)cc3c(c12)[C@H](CCl)CN3C(=O)/C=C/c1ccc(-c2ccc(/C=C/C(=O)N3C[C@@H](CCl)c4c3cc(O)c3[nH]c(C(F)(F)F)c(C(=O)OC)c43)cn2)nc1 [Example 13, (S,S)-3,3'-[3,3'-(2,2'-bipyridyl-5,5'-diyl)diacryloyl]-bis[1-chloromethyl-5-hydroxy-7-trifluoromethyl-1,2,3,6-tetrahydropyrrolo [3,2-e]indole-8-methoxycarbonyl]], the IC50 (HeLa S3 cells) is reported as 0.0198 ng/mL (≈ 0.0207 nM), the “Antitumor activity Colon-26 TGI % (tumor growth inhibition rate)” value (Colon 26 cells; 3.91 μg/kg) is reported as 88% and the “Chemotherapy index MTD/TGI50” value (Colon 26 cells) is reported as 3.6.

With COC(=O)c1c(C)[nH]c2c(O)cc3c(c12)[C@H](CCl)CN3C(=O)/C=C/c1ccc(/C=C/C(=O)N2C[C@@H](CCl)c3c2cc(O)c2[nH]c(C)c(C(=O)OC)c32)cc1 [Example 18, (S,S)-3,3'-[3,3'-(1,4-phenylene)diacryloyl]-bis[1-chloromethyl-5-hydroxy-7-methyl-1,2,3,6-tetrahydropyrrolo [3,2-e]indole-8-methoxycarbonyl]] the IC50 (HeLa S3 cells) was 0.000459 ng/mL (≈ 0.000595 nM).

For Cc1c[nH]c2c(O)cc3c(c12)[C@H](CCl)CN3C(=O)/C=C/c1ccc(/C=C/C(=O)N2C[C@@H](CCl)c3c2cc(O)c2[nH]cc(C)c32)cc1 [Example 19, (S,S)-3,3'-[3,3'-(1,4-phenylene)diacryloy]-bis[1-chloromethyl-5-hydroxy-8-methyl-1,2,3,6-tetrahydropyrrolo[3,2-e]indole]], the IC50 (HeLa S3 cells) was 0.0134 ng/mL (≈ 0.0204 nM).

For O=C(/C=C/c1ccc(/C=C/C(=O)N2C[C@@H](CCl)c3c2cc(O)c2[nH]c4ccccc4c32)cc1)N1C[C@@H](CCl)c2c1cc(O)c1[nH]c3ccccc3c21 [Example 20, (S,S)-3,3'-[3,3'-(1,4-phenylene)diacryloyl]-bis[1-chloromethyl-5-hydroxy-1,2-dihydropyrrolo[3,2-a]carbazole]], the IC50 (HeLa S3 cells) was 0.0716 ng/mL (≈ 0.0984 nM).

COC(=O)c1c[nH]c2c(O)cc3c(c12)[C@H](CCl)CN3C(=O)/C=C/c1ccc(/C=C/C(=O)N2C[C@@H](CCl)c3c2cc(O)c2[nH]cc(C(=O)OC)c32)cc1 [Example 21, (S,S)-3,3'-[3,3'-(1,4-phenylene)diacryloy]-bis[1-chloromethyl-5-hydroxy-1,2,3,6-tetrahydropyrrolo[3,2-e]indole-8-methoxycarbonyl]] was tested, and the IC50 (HeLa S3 cells) was 0.00035 ng/mL (≈ 0.000471 nM).

For COC(=O)c1cc2c3c(cc(O)c2[nH]1)N(C(=O)/C=C/c1ccc(/C=C/C(=O)N2C[C@@H](CCl)c4c2cc(O)c2[nH]c(C(=O)OC)cc42)cc1)C[C@H]3CCl [Example 22, (S,S)-3,3'-[3,3 '-(1,4-phenylene)diacryloy]-bis[1-chloromethyl-5-hydroxy-1,2,3,6-tetrahydropyrrolo[3,2-e]indole-7-methoxycarbonyl]], the IC50 (HeLa S3 cells) was 0.0227 ng/mL (≈ 0.0305 nM).
